Like-named read-outs stand apart in the source and are kept apart here. Where only a bound is given, the exact number is not on record here.

As usually defined, the EC50 is the concentration giving half of the maximal effect. One may read the IC50 as the midpoint of a concentration-inhibition curve.

The target in experiment [1] is T1, mu opioid receptor (MOR) (Homo sapiens, UniProt P35372). Briefly: MOR cAMP agonist assay.
In experiment [2] the target is T2, kappa opioid receptor (KOR) (Homo sapiens, UniProt P41145).
T2 construct: host or cells: CHO-K1
T2 sequence (P41145 whole entry): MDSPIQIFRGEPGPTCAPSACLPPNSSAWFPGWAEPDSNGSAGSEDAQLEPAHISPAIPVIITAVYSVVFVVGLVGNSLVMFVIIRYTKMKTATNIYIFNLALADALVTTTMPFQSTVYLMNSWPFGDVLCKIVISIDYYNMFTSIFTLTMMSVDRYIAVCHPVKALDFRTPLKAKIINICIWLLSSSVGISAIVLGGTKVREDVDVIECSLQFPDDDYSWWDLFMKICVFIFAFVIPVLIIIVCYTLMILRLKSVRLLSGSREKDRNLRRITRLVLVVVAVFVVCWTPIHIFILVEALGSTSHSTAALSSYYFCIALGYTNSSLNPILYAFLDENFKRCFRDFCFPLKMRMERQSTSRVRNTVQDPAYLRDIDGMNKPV
Briefly: cell-based. Conditions: after activation with dynorphin B. An excerpt: KOR cAMP Antagonist Assay

The target in experiment [3] is T1, mu opioid receptor (MOR). Briefly: MOR GTPγS agonist assay. In kind it is biochemical. Details: host or cells: CHO-K1. To be noted: membranes of CHO cells over-expressing MOR; SPA beads; read-out: MOR GTPγS EC50. The source says:
Membranes obtained from the stable cell lines over-expressing MOR were subjected to GTPγS assay using SPA beads (Perkin Elmer, Cat #RPNQ0001).

[4] abbreviates: kOR cAMP IC50, CHO-K1 cells expressing kOR.

T1 sequence (P35372 whole entry): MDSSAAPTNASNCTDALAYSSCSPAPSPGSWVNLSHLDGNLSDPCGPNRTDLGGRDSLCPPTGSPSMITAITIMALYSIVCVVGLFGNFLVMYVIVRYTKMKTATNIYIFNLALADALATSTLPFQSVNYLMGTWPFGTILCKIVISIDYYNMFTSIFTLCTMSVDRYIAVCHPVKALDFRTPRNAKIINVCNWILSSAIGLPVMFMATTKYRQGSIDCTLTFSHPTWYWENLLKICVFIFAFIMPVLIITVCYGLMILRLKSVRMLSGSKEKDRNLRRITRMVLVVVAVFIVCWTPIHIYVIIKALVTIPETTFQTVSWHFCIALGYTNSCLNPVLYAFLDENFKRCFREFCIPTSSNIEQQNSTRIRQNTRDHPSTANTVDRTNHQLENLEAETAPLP

Turning to `CN(C)[C@H](CNC(=O)[C@H]1C[C@@]1(C)c1ccccc1)Cc1ccc(O)cc1` [Compound B-11, (1S,2R)—N—((S)-2-(dimethylamino)-3-(4-hydroxyphenyl)propyl)-2-methyl-2-phenylcyclopropane-1-carboxamide], the 50% effective concentration (EC50) on mu opioid receptor (MOR) [1] was 100 to 1000 nM. Moreover, the IC50 in experiment [2] (setting [4]) was more than 1000 nM. Molecule `C[C@H](CC(=O)NC[C@H](Cc1ccc(C(N)=O)cc1)N(C)C)c1ccccc1` [Compound A-10, 4-((S)-2-(dimethylamino)-3-((R)-3-phenylbutanamido)propyl)benzamide] returned an IC50 in experiment [2] (setting [4]) of 100 to 1000 nM. `Cc1cc(C(N)=O)cc(C)c1C[C@H](N)CNC(=O)O[C@@H](C)c1ccccc1` [Compound A-5, (S)-1-phenylethyl ((S)-2-amino-3-(4-carbamoyl-2,6-dimethylphenyl)propyl)carbamate] showed a concentration giving a half-maximal response (EC50) at mu opioid receptor (MOR) [1] of 100 to 1000 nM. Further, the IC50 in experiment [2] (setting [4]) is less than 100 nM.

`CN(C)[C@H](CNC(=O)[C@@H]1C[C@@]1(C)c1ccccc1)Cc1ccc(C(N)=O)cc1Cl` [Compound B-6, 3-chloro-4-((S)-2-(dimethylamino)-3-((1R,2R)-2-methyl-2-phenylcyclopropane-1-carboxamido)propyl)benzamide] showed a concentration giving a half-maximal response (EC50) at mu opioid receptor (MOR) [1] of less than 100 nM. This molecule also had an IC50 in experiment [2] (setting [4]) of 100 to 1000 nM.

The molecule `Cc1cc(C(N)=O)cc(C)c1C[C@H](N)CNC(=O)N[C@H](c1ccccc1)C1CC1` [Compound A-6, 4-((S)-2-amino-3-(3-((S)-cyclopropyl(phenyl)methyl)ureido)propyl)-3,5-dimethylbenzamide] registered a 50% effective concentration (EC50) on mu opioid receptor (MOR) [1] of 100 to 1000 nM. In experiment [2] (setting [4]), the IC50 was in the range of 100 to 1000 nM. Take `C[C@@]1(c2ccccc2)C[C@H]1C(=O)NC[C@@H]1Cc2ccc(O)cc2N1` [Compound B-16, (1R,2R)—N—(((S)-6-hydroxyindolin-2-yl)methyl)-2-methyl-2-phenylcyclopropane-1-carboxamide]: at mu opioid receptor (MOR) [1], the EC50 is more than 1000 nM. Further, in experiment [2] (CHO-K1 cells expressing kOR, read-out: kOR cAMP IC50), the IC50 was more than 1000 nM. `CN(C)[C@H](CNC(=O)[C@@H]1C[C@@]1(C)c1ccccc1)Cc1ccc(O)cc1` [Compound B-62, (1R,2R)—N—((S)-2-(dimethylamino)-3-(4-hydroxyphenyl)propyl)-2-methyl-2-phenylcyclopropane-1-carboxamide]: at mu opioid receptor (MOR) [1], the EC50 was less than 100 nM. Moreover, the IC50 in experiment [2] (setting [4]) was 100 to 1000 nM. The like results for `CN(C)[C@H](CNC(=O)[C@@H]1C[C@@]1(C)c1ccccc1)Cc1ccc2[nH]ncc2c1` [Compound B-20, (1R,2R)—N—((S)-2-(dimethylamino)-3-(1H-indazol-5-yl)propyl)-2-methyl-2-phenylcyclopropane-1-carboxamide] were, in that order, less than 100 nM and more than 1000 nM. On mu opioid receptor (MOR) [1], `Cc1cc(C(N)=O)cc(C)c1C[C@@H](CNC(=O)O[C@@H](C)c1ccccc1)N(C)C` [Compound A-7, (S)-1-phenylethyl ((S)-3-(4-carbamoyl-2,6-dimethylphenyl)-2-(dimethylamino)propyl)carbamate] had a half-maximal effective concentration (EC50) of more than 1000 nM. In experiment [2] (setting [4]), the IC50 was in the range of 100 to 1000 nM. With `CN(C)[C@H](CNC(=O)N[C@H](c1ccccc1)C1CC1)Cc1ccc(C(N)=O)cc1` [Compound A-4, 4-((S)-3-(3-((S)-cyclopropyl(phenyl)methyl)ureido)-2-(dimethylamino)propyl)benzamide], the EC50 at mu opioid receptor (MOR) [1] is less than 100 nM. In experiment [2] (setting [4]), this molecule had a 50% inhibitory concentration (IC50) of less than 100 nM. Consider `CN(C)[C@H](CNC(=O)[C@@H]1C[C@H]1c1ccccc1)Cc1ccc(O)cc1` [Compound B-17, (1R,2R)—N—((S)-2-(dimethylamino)-3-(4-hydroxyphenyl)propyl)-2-phenylcyclopropane-1-carboxamide], for which the concentration for a half-maximal effect (EC50) at mu opioid receptor (MOR) [1] was less than 100 nM. This molecule also gave an IC50 in experiment [2] (setting [4]) of 100 to 1000 nM. On to `CNC(=O)c1ccc(C[C@@H](CNC(=O)[C@H]2C[C@]2(C)c2ccccc2)N(C)C)cc1F` [Compound B-22, 4-((S)-2-(dimethylamino)-3-((1S,2S)-2-methyl-2-phenylcyclopropane-1-carboxamido)propyl)-2-fluoro-N-methylbenzamide], for which the EC50 at mu opioid receptor (MOR) [1] is less than 100 nM.

With `CN1Cc2cc(O)ccc2C[C@H]1CNC(=O)[C@@H]1C[C@@]1(C)c1ccccc1` [Compound B-51, (1R,2R)—N—(((S)-7-hydroxy-2-methyl-1,2,3,4-tetrahydroisoquinolin-3-yl)methyl)-2-methyl-2-phenylcyclopropane-1-carboxamide], at mu opioid receptor (MOR) [1], the EC50 is less than 100 nM. On to `CN(C)[C@H](CNC(=O)[C@@H]1C[C@]1(C)c1ccccc1)Cc1cc(F)c(O)c(Cl)c1` [Compound B-24, (1R,2S)—N—((S)-3-(3-chloro-5-fluoro-4-hydroxyphenyl)-2-(dimethylamino)propyl)-2-methyl-2-phenylcyclopropane-1-carboxamide], for which the IC50 in experiment [2] (setting [4]) lay within 100 to 1000 nM. With `CN(C)[C@H](CNC(=O)[C@@H]1C[C@@]1(C)c1ccccc1)Cc1ccc(O)c(Cl)c1` [Compound B-59, (1R,2R)—N—((S)-3-(3-chloro-4-hydroxyphenyl)-2-(dimethylamino)propyl)-2-methyl-2-phenylcyclopropane-1-carboxamide], on mu opioid receptor (MOR) [1], the EC50 is less than 100 nM. `CN(C)[C@H](CNC(=O)[C@@H]1C[C@@]1(C)c1ccccc1)Cc1ccc(O)cc1F` [Compound B-44, (1R,2R)—N—((S)-2-(dimethylamino)-3-(2-fluoro-4-hydroxyphenyl)propyl)-2-methyl-2-phenylcyclopropane-1-carboxamide] came in with an IC50 in experiment [2] (setting [4]) of more than 1000 nM.

In turn, `CC[C@@]1(c2ccccc2)C[C@H]1C(=O)NC[C@H](Cc1ccc(C(=O)NC)c(F)c1)N(C)C` [Compound B-21, 4-((S)-2-(dimethylamino)-3-((1R,2R)-2-ethyl-2-phenylcyclopropane-1-carboxamido)propyl)-2-fluoro-N-methylbenzamide] showed an EC50 at mu opioid receptor (MOR) [1] of less than 100 nM. Regarding `CNC(=O)c1cc(C)c(C[C@@H](CNC(=O)c2ccccc2)N(C)C)c(C)c1` [Compound C-45], at mu opioid receptor (MOR) [3], the EC50 is less than 100 nM. For the same molecule, the IC50 in experiment [2] (setting [4]) is more than 1000 nM. In the case of `CN(C)[C@H](CNC(=O)[C@H]1C[C@@H]1c1ccccc1)Cc1ccc(O)cc1` [Compound B-18, (1S,2S)—N—((S)-2-(dimethylamino)-3-(4-hydroxyphenyl)propyl)-2-phenylcyclopropane-1-carboxamide], the IC50 in experiment [2] (setting [4]) fell in the range of 100 to 1000 nM.

On to `CNC(=O)c1cc(F)c(C[C@@H](CNC(=O)[C@@H]2C[C@]2(C)c2ccccc2)N(C)C)cc1F` [Compound B-28, 4-((S)-2-(dimethylamino)-3-((1R,2S)-2-methyl-2-phenylcyclopropane-1-carboxamido)propyl)-2,5-difluoro-N-methylbenzamide], for which, at mu opioid receptor (MOR) [1], the EC50 is less than 100 nM. The molecule `CN(C)[C@H](CNC(=O)[C@@H]1C[C@@]1(C)c1ccccc1)Cc1ccc2[nH]c(=O)oc2c1` [Compound B-53, (1R,2R)—N—((S)-2-(dimethylamino)-3-(2-oxo-2,3-dihydrobenzo[d]oxazol-6-yl)propyl)-2-methyl-2-phenylcyclopropane-1-carboxamide] came in with an EC50 at mu opioid receptor (MOR) [1] of less than 100 nM. As to `Cc1ccc(C(=O)NC[C@H](Cc2ccc(C(N)=O)cc2)N(C)C)c(C)c1` [Compound C-67, (S)—N-(3-(4-carbamoylphenyl)-2-(dimethylamino)propyl)-2,4-dimethylbenzamide], at mu opioid receptor (MOR) [3], the EC50 was less than 100 nM. In addition, the IC50 in experiment [2] (setting [4]) is more than 1000 nM. With `CN(CC1CC1)[C@H](CNC(=O)[C@@H]1C[C@]1(C)c1ccccc1)Cc1ccc2[nH]c(=O)oc2c1` [Compound B-32, (1R,2S)—N—((S)-2-((cyclopropylmethyl)(methyl)amino)-3-(2-oxo-2,3-dihydrobenzo[d]oxazol-6-yl)propyl)-2-methyl-2-phenylcyclopropane-1-carboxamide], the EC50 on mu opioid receptor (MOR) [1] was in the range of 100 to 1000 nM.

(Values after patent publication US20210147343A1 (priority 2018, published 2021).)
